The results in this text go back to the NIST ThermoML archive (doi:10.1016/j.jct.2015.02.004).

Numbers after ± are expanded uncertainties.

As a reminder, the mass density is mass per unit of volume.

For the data set the following is noted: 298.15 K; 101.33 kPa; Liquid; Pycnometric method.
For `COC(C)(C)C` [2-methoxy-2-methylpropane], the mass density was found to be 734.1 ± 1.9 kg/m3.

On to `CCO` [ethanol], for which the mass density is reported as 784.2 ± 1.9 kg/m3.

With `CCCCO` [butan-1-ol], the mass density is 805.5 ± 2 kg/m3.

Consider `CC(C)=O` [acetone], for which the mass density is listed as 783.8 ± 1.9 kg/m3.

In the case of `CCOC(C)=O` [ethyl acetate], the mass density worked out at 893.4 ± 2.1 kg/m3.

As for `CC(C)O` [propan-2-ol], the mass density is reported as 780.6 ± 1.9 kg/m3.

Take `CO` [methanol]: the mass density is on record as 786.3 ± 1.9 kg/m3.

Take `CC#N` [acetonitrile]: the mass density was found to be 776.3 ± 1.9 kg/m3.
